Columns and labels:
Experiment in all cases: relative viability (nuclei count vs DMSO), 5 days (fraction); higher = more cells survive
[1] = compound: C1CNCCC1C2=CC(=NN2)C3=CC=NC=C3 + O=C(c1cc(Cc2n[nH]c(=O)c3ccccc23)ccc1F)N1CCN(C(=O)C2CC2)CC1 [Olaparib] (partner 8 µM)
How it was run: (§1)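 Cells from lung cancer lines were seeded into 1536-well plates and, one day later, dosed by pin tool. Treatments were either a single drug or a fixed dose of an anchor drug with five library-drug doses (not always all listed) in √10 steps. After 5 days, nuclei were stained in a one-step fixation (final 0.05% Triton X-100, 1% formaldehyde, 1 ug/ml Hoechst) and counted on 4× images, and relative viability is the treated-to-vehicle nuclei ratio, as the median of duplicate plates.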

[2] = compound: C[C@@H](N)c1ccc(C(=O)Nc2ccnc3[nH]ccc23)cc1 + CS(=O)(=O)N1CCN(Cc2cc3nc(-c4cccc5[nH]ncc45)nc(N4CCOCC4)c3s2)CC1 [Pictilisib] (partner 1 µM)
How it was run: as §1

[3] = compound: C[C@@H](N)c1ccc(C(=O)Nc2ccnc3[nH]ccc23)cc1 + Cc1nc(Nc2ncc(C(=O)Nc3c(C)cccc3Cl)s2)cc(N2CCN(CCO)CC2)n1 [Dasatinib] (partner 0.075 µM)
How it was run: as §1

[4] = compound: C[C@@H](N)c1ccc(C(=O)Nc2ccnc3[nH]ccc23)cc1 + NC(=O)Nc1cc(-c2cccc(F)c2)sc1C(=O)N[C@H]1CCCNC1 [AZD7762] (partner 0.2 µM)
How it was run: as §1

Row | Cell Line | relative viability ([1]; first compound 0.08 µM) | relative viability ([1]; first compound 0.8 µM) | relative viability ([1]; first compound 2.53 µM) | relative viability ([1]; first compound 8 µM) | relative viability ([2]; first compound 0.04 µM) | relative viability ([2]; first compound 0.1265 µM) | relative viability ([2]; first compound 0.4 µM) | relative viability ([2]; first compound 1.265 µM) | relative viability ([2]; first compound 4 µM) | relative viability ([3]; first compound 0.04 µM) | relative viability ([3]; first compound 0.1265 µM) | relative viability ([3]; first compound 0.4 µM) | relative viability ([3]; first compound 1.265 µM) | relative viability ([3]; first compound 4 µM) | relative viability ([4]; first compound 0.04 µM) | relative viability ([4]; first compound 0.1265 µM) | relative viability ([4]; first compound 0.4 µM) | relative viability ([4]; first compound 1.265 µM) | relative viability ([4]; first compound 4 µM)
1 | NCI-H1299 | 1.03 | 0.97 | 0.946 | 0.91 | 0.874 | 0.921 | 0.973 | 0.892 | 0.678 |  |  |  |  |  |  |  |  |  | 
2 | NCI-H1563 |  |  |  |  | 0.691 | 0.661 | 0.638 | 0.578 | 0.688 | 0.49 | 0.462 | 0.486 | 0.377 | 0.465 |  |  |  |  | 
3 | NCI-H1623 |  |  |  |  |  |  |  |  |  | 0.619 | 0.501 | 0.602 | 0.21 | 0.709 |  |  |  |  | 
4 | NCI-H1648 | 1.02 | 0.817 |  | 1.3 |  |  |  |  |  |  |  |  |  |  | 0.951 | 1.01 | 0.924 | 1.61 | 1.35
5 | NCI-H1650 | 0.613 | 0.948 | 0.795 | 0.69 | 0.672 | 0.584 | 0.595 | 0.318 | 0.586 | 0.42 | 0.402 | 0.428 | 0.39 | 0.311 |  |  |  |  | 
6 | NCI-H1703 | 0.375 | 0.72 | 0.443 | 0.431 | 0.235 | 0.247 | 0.205 | 0.234 | 0.197 |  |  |  |  |  |  | 0.125 | 0.131 |  | 0.105
7 | NCI-H2009 | 0.683 | 0.749 | 0.648 | 0.728 | 0.77 | 0.768 | 0.886 | 0.22 | 0.753 | 0.18 | 0.268 | 0.199 | 0.171 | 0.154 |  |  |  |  | 
8 | NCI-H2023 | 0.354 | 0.494 | 0.488 | 0.538 | 0.283 | 0.26 | 0.403 | 0.139 | 0.301 | 0.592 | 0.56 | 0.502 | 0.487 | 0.465 |  |  |  |  | 
9 | NCI-H2228 | 0.617 | 0.747 | 0.575 | 0.549 | 0.441 | 0.503 | 0.335 | 0.319 | 0.491 | 0.677 | 0.505 | 0.546 | 0.482 | 0.436 |  |  |  |  | 
10 | NCI-H2342 | 0.419 | 0.388 | 0.486 | 0.491 |  |  |  |  |  | 0.342 | 0.357 | 0.322 | 0.317 | 0.327 | 0.508 | 0.643 | 0.534 | 0.611 | 0.584
11 | SK-LU-1 | 0.437 | 0.425 | 0.467 | 0.439 | 0.589 | 0.621 | 0.549 | 0.608 | 0.544 | 0.132 | 0.138 | 0.136 | 0.109 | 0.121 |  |  |  |  | 
12 | SK-MES-1 | 0.553 | 0.849 | 0.714 | 0.684 | 0.375 | 0.39 | 0.359 | 0.395 | 0.404 | 0.398 | 0.398 | 0.358 | 0.279 | 0.334 |  |  |  |  | 
13 | SW 900 | 1.02 |  | 0.868 | 0.861 |  |  |  |  |  | 0.722 | 0.549 | 0.606 | 0.44 | 0.488 | 0.772 | 0.698 | 0.661 | 0.777 | 0.878
14 | SW 1573 |  | 0.612 | 0.655 | 0.626 | 0.467 | 0.56 | 0.543 | 0.539 | 0.43 | 0.405 | 0.592 | 0.433 | 0.259 | 0.231 |  |  |  |  | 
